Experimental data: patent publication US20260345619A1 (Principia Biopharma Inc., priority 2023, published 2026)

Columns and labels:
[1] = Asthma Nighttime Symptom Diary (ANSD) score; assay type: in vivo, human; conditions: for LS mean difference versus placebo, ANSD symptom score: Week 12
Source text: ADSD and ANSD are PRO measures developed by the PRO Consortium′ Asthma Working Group. Both instruments have been designed to measure asthma symptoms in adult and adolescent (12 years of age and older) patients diagnosed with mild to severe asthma. ADSD and ANSD assess asthma severity based on patient self-report of asthma core symptoms.
Other efficacy endpoints included: • Change from baseline in pre- and post-bronchodilator FEV1 and other lung function measurement (peak expiratory flow (PEF), forced vital capacity (FVC), forced expiratory flow (FEF) 25-75%) at each spirometry endpoint. • Asthma Control Questionnaire-5 (ACQ-5) score change from baseline at EOT and at each assessment time point. • Asthma Quality of Life Questionnaire with Standardized Activities (AQLQ(S)) Self-Administered score change from baseline at EOT and at each assessment time point. • Change from baseline at EOT and change from baseline at each week for asthma symptom scores in the morning and evening (ADSD and ANSD). Questionnaire was to be administered daily and score averaged weekly for analysis. • Change from baseline at EOT and change from baseline at each week in number of inhalations/day of albuterol or levalbuterol for symptom relief.
The ADSD and ANSD are PRO measures developed by the PRO Consortium′ Asthma Working Group. Both instruments have been designed to measure asthma symptoms in adult and adolescent (12 years of age and older) patients diagnosed with mild to severe asthma. ADSD and ANSD assess asthma severity based on patient self-report of asthma core symptoms, i.e., difficulty of breathing; wheezing; shortness of breath; chest tightness; chest pain; and cough. Patients were asked to complete the ADSD every night before they went to bed, thinking about their asthma symptoms on that day, from when they got up this morning until then; the ANSD when getting up, thinking about their asthma symptoms from the previous night from when they went to bed until then.
Both the ADSD and ANSD are composed of 6 items rated using an 11-point NRS that ranges from 0=None to 10=As bad as you can imagine (Gater et al. 2016). The participants were to record their daytime and nighttime asthma symptoms in an electronic diary, once in the evening and once in the morning, respectively. The participants were to complete the ADSD and the ANSD.

[2] = Safety: adverse events (TEAEs, SAEs, AESIs), vital signs, labs; assay type: in vivo, human; conditions: for Participants with any TEAE / Participants with any TEAE leading to death / Participants with any TEAE related to IMP / Participants with any severe TEAE / Participants with any treatment emergent AESI / Participants with any treatment emergent SAE: safety population
Source text: In terms of safety, […], adverse events of special interest (AESIs), vital signs, and laboratory analyses were to be reported.
Safety assessments included physical examinations, measurements of vital signs, electrocardiograms, clinical safety laboratory assessments, and pregnancy testing.
An AE is any untoward medical occurrence in a patient or clinical study participant, temporally associated with the use of study intervention, whether or not considered related to the study intervention.
An adverse event of special interest (AESI) is an AE (serious or nonserious) of scientific and medical concern specific to the Sponsor's product or program, for which ongoing monitoring and immediate notification by the Investigator to the Sponsor was required. Such events may have required further investigation in order to characterize and understand them. Adverse events of special interest may have been added, modified or removed during a study by protocol amendment. AESIs include the following: • Pregnancy of a participant entered in a study as well as pregnancy occurring in a female partner of a participant entered in a study with IMP. • Symptomatic overdose (serious or nonserious) with IMP. • Other project-specific AESI(s), including: severe infections including opportunistic infections; tuberculosis or initiation of medications for suspected tuberculosis; active COVID-19 infection as documented by a positive COVID-19 molecular test; major hemorrhagic events, including symptomatic bleeding in a critical area or organ such as the CNS, or intraocular bleeding, resulting in an SAE; serious adverse events (or non-serious adverse events with a severity level consistent with Grade 3 CTCAE of cytopenia; and atrial fibrillation.
The safety variables, including AEs, vital signs, physical examination, and laboratory values were to be summarized using descriptive statistics in each treatment group in the safety population.
All safety analyses were to be performed on the safety population. The baseline value is defined generally as the last available value before the first dose of IMP.
In general, AEs were to be analyzed in the following 3 categories: • Pre-treatment AEs: AEs that developed, worsened, or became serious during the pre-treatment period. • TEAEs: AEs that developed, worsened, or became serious during the treatment-emergent period. • Post-treatment AEs: AEs that developed, worsened, or became serious during the post-treatment period.

[3] = system: bone marrow tyrosine kinase on chromosome X (BMX); conditions: cited from earlier work
[4] = read-out: IC50 for RLK; cited from earlier work
ERBB4 = conditions: cited from earlier work
platelet aggregation = conditions: healthy volunteers or patients with ITP; cited from earlier work
[5] = healthy volunteers (N=51), even at supratherapeutic doses; cited from earlier work
[6] = healthy volunteers; cited from earlier work

CC(C)(C=C(C#N)C(=O)N1CCC[C@@H](n2nc(-c3ccc(Oc4ccccc4)cc3F)c3c(N)ncnc32)C1)N1CCN(C2COC2)CC1 (mixture of isomers) [rilzabrutinib, (R)-2-[3-[4-amino-3-(2-fluoro-4-phenoxy-phenyl)pyrazolo[3,4-d]pyrimidin-1-yl]piperidine-1-carbonyl]-4-methyl-4-[4-(oxetan-3-yl)piperazin-1-yl]pent-2-enenitrile]
LS mean ANSD change from baseline at Week 12 ([1]; 400 mg BID): −0.35
LS mean difference versus placebo, ANSD symptom score ([1]; 400 mg BID, 95% CI −1.33, −0.03, nominal p=0.0390): −0.68
LS mean ANSD change from baseline at Week 12 ([1]; 400 mg TID): −0.48
LS mean difference versus placebo, ANSD symptom score ([1]; 400 mg TID, 95% CI −1.13, 0.06, nominal p=0.0758): −0.54
ANSD symptom score (in words) ([1]; both cohorts, Week 12, all components): improvement in ADSD and ANSD symptom score
overall safety ([2]; 400 mg BID and TID, asthma): generally safe, with no evidence of new safety concerns
Participants with any TEAE ([2]; 400 mg BID, N = 32): 14 (43.8) n (%)
Participants with any TEAE leading to death ([2]; 400 mg BID, N = 32): 0 n (%)
Participants with any TEAE related to IMP ([2]; 400 mg BID, N = 32): 5 (15.6) n (%)
Participants with any severe TEAE ([2]; 400 mg BID, N = 32): 0 n (%)
Participants with any treatment emergent AESI ([2]; 400 mg BID, N = 32): 1 (3.1) n (%)
Participants with any treatment emergent SAE ([2]; 400 mg BID, N = 32): 2 (6.3) n (%)
Participants with any TEAE ([2]; 400 mg TID, N = 64): 26 (40.6) n (%)
Participants with any TEAE leading to death ([2]; 400 mg TID, N = 64): 0 n (%)
Participants with any TEAE related to IMP ([2]; 400 mg TID, N = 64): 10 (15.6) n (%)
Participants with any severe TEAE ([2]; 400 mg TID, N = 64): 1 (1.6) n (%)
Participants with any treatment emergent AESI ([2]; 400 mg TID, N = 64): 3 (4.7) n (%)
Participants with any treatment emergent SAE ([2]; 400 mg TID, N = 64): 0 n (%)
Participants with any TEAE ([2]; combined BID and TID, N = 96): 40 (41.7) n (%)
Participants with any TEAE leading to death ([2]; combined BID and TID, N = 96): 0 n (%)
Participants with any TEAE related to IMP ([2]; combined BID and TID, N = 96): 15 (15.6) n (%)
Participants with any severe TEAE ([2]; combined BID and TID, N = 96): 1 (1.0) n (%)
Participants with any treatment emergent AESI ([2]; combined BID and TID, N = 96): 4 (4.2) n (%)
Participants with any treatment emergent SAE ([2]; combined BID and TID, N = 96): 2 (2.1) n (%)
IC50 [3]: 1 nM
IC50 [4]: 1.2 nM
IC50 (ERBB4): 11 nM
bleeding problems (platelet aggregation): does not lead to bleeding problems
effect on cardiac repolarization [5]: does not exert clinically relevant effects on cardiac repolarization
discontinuation due to an adverse event [6]: no participants discontinued treatment due to an adverse event
most commonly reported adverse events [6]: gastrointestinal adverse events, including nausea/vomiting and diarrhea
serious adverse events or deaths [6]: No serious adverse events or deaths were reported
